According to BigSolDB 2.1:

CC(=O)Nc1ccc(/C=N/NC(N)=S)cc1
solubility (mole fraction)
Settings | 288.15 K | 293.15 K | 298.15 K | 303.15 K | 308.15 K | 313.15 K | 318.15 K
in n-hexane | 5.55e-06 | 7.25e-06 | 1.03e-05 | 1.34e-05 | 1.75e-05 | 2.21e-05 | 2.93e-05
in n-octanol | 0.00038 | 0.000439 | 0.000503 | 0.00058 | 0.000673 | 0.000762 | 0.000863
